Results taken from patent US12152048B2, “Nitroxoline prodrug and use thereof” (Jiangsu Yahong Meditech Co., Ltd., priority 2018, dated 2024).
Converted amounts (≈) assume the structure as drawn.

What was measured:
[1] = Stability in plasma, overall conclusion (species not stated); details: conclusion in words
[2] = Determination of water solubility in phosphate buffer; format: physicochemical; details: aqueous buffer, thermodynamic from solid; phosphate buffer pH 7.4, room temperature, 24 hours
Procedure, shortened: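 2 mg solid compound shaken in 500 μL phosphate buffer (pH 1.2, 4.5, 6.8 or 7.4) in a sealed flask, room temperature, 24 h. Suspension vacuum-filtered; dissolved concentration in filtrate quantified by LC/MS/MS.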

[3] = Stability in dog liver microsome; details: 2 μM, 37° C., 30 minutes
[4] = Stability in mouse liver microsome; format: in vitro ADME; details: 2 μM, 37° C., 30 minutes
[5] = Stability in human plasma
[6] = Stability in human liver microsome; details: 2 μM, 37° C., 30 minutes
Stability in dog plasma = format: in vitro ADME
[7] = Stability in rat liver microsome; details: 2 μM, 37° C., 30 minutes

Description for Stability in rat plasma: Experimental instruments: thermostatic shaker (SHA-B, Guohua Electric Appliance Co., Ltd.); centrifuge (5810R, Eppendorf); mass spectrometry (AP4000, Applied Biosystems, USA); liquid chromatography (LC-30AD, Shimadzu); sample injector (CTC Analytics AG System, CTC).
Test animals: plasma of human (batch number: BRH1343165), rat (batch number: RAT336728), mouse (batch number: MSE280000), dog (batch number: BGL99137) and monkey (batch number: PH-Monkey-20180821) are purchased from Shanghai Sixin Biological Technology Co., Ltd.
Experimental process: the compound of the present invention was dissolved in an organic solvent to obtain a 1 mM working solution. 3 μL of the working solution were added to 597 μL of pre-incubated human or rat plasma and mixed well. 50 μL of the solution were immediately taken out as the 0 minute sample. The remaining sample was incubated at 37° C., and 50 μL of sample were taken out at 15, 30, 60 and 120 minutes respectively. All the samples taken out were immediately processed to precipitate protein, and centrifuged to obtain a supermate for the determination of the compound concentration by LC/MS/MS.

CCC(C)C(NC(=O)OCOc1ccc([N+](=O)[O-])c2cccnc12)C(=O)OC (stereo not shown) [Compound 55, methyl 3-methyl-2-(((5-nitroquinolin-8-yloxy)methoxy)formamido)pentanoate]
Percentage of the compound remaining in plasma (Stability in rat plasma; 0 minute): 100.0%
Percentage of the compound remaining in plasma (Stability in rat plasma; 37° C., 15 minutes): 48.9%
Percentage of the compound remaining in plasma (Stability in rat plasma; 37° C., 30 minutes): 24.7%
Percentage of the compound remaining in plasma (Stability in rat plasma; 37° C., 60 minutes): 5.0%
Percentage of the compound remaining in plasma (Stability in rat plasma; 37° C., 120 minutes): 0.3%
stability in plasma [1]: high stability
solubility at 24 h [2]: 15.5 µg/mL (≈ 39.7 µM)
Percentage of the compound remaining in dog liver microsome ([3]; with coenzyme): 70.73%
Percentage of the compound remaining in dog liver microsome ([3]; without coenzyme): 84.65%
Percentage of the compound remaining in mouse liver microsome ([4]; with coenzyme): 2.01%
Percentage of the compound remaining in mouse liver microsome ([4]; without coenzyme): 90.39%
Percentage of the compound remaining in plasma ([5]; 0 minute): 100.0%
Percentage of the compound remaining in plasma ([5]; 37° C., 15 minutes): 91.3%
Percentage of the compound remaining in plasma ([5]; 37° C., 30 minutes): 94.5%
Percentage of the compound remaining in plasma ([5]; 37° C., 60 minutes): 92.1%
Percentage of the compound remaining in plasma ([5]; 37° C., 120 minutes): 68.7%
Percentage of the compound remaining in human liver microsome ([6]; with coenzyme): 61.24%
Percentage of the compound remaining in human liver microsome ([6]; without coenzyme): 81.91%
Percentage of the compound remaining in plasma (Stability in dog plasma; 0 minute): 100.0%
Percentage of the compound remaining in plasma (Stability in dog plasma; 37° C., 15 minutes): 99.6%
Percentage of the compound remaining in plasma (Stability in dog plasma; 37° C., 30 minutes): 97.5%
Percentage of the compound remaining in plasma (Stability in dog plasma; 37° C., 60 minutes): 83.3%
Percentage of the compound remaining in plasma (Stability in dog plasma; 37° C., 120 minutes): 70.1%
Percentage of the compound remaining in rat liver microsome ([7]; with coenzyme): 8.58%
Percentage of the compound remaining in rat liver microsome ([7]; without coenzyme): 52.76%
